Laboratory results taken from article PMC3605045, “GH1-family 6-P-β-glucosidases from human microbiome lactic acid bacteria” (Acta Crystallographica Section D: Biological Crystallography, 2013).

Experiments:
LpPgb1 = molecular target: T1, LpPgb1 (Lactiplantibacillus plantarum, UniProt F9UU25); test: G6PDH-coupled NADPH absorbance assay ([…] nm); format: biochemical; details: 0.1 M HEPES-NaOH pH 8.0, 2 mM NADP+, 298 K; native enzyme 0.02 µM
T1 construct: gene pbg1; full length Met1-Glu478, 478 residues, ~55 kDa, homodimer; His6 cut by TEV, SNA- left at N-terminus; E. coli BL21 (DE3) Magic, pMCSG7

SmBgl = molecular target: T2, SmBgl (Streptococcus mutans, UniProt Q8DT00); test: X-ray crystal structure, […] Å; format: binding; details: crystallised with 5 mM 6'-P-gentiobiose; product in phosphate and -1 subsites
T2 construct: gene bgl; full length, 477 residues, ~55 kDa, homodimer; His6 cut by TEV, SNA- left at N-terminus; E. coli BL21 (DE3) Magic, pMCSG7; SeMet-labelled protein in kinetic assays

In the case of `O=P(O)(O)OC[C@H]1O[C@@H](O[C@H]2[C@H](O)[C@@H](O)C(O)O[C@@H]2CO)[C@H](O)[C@@H](O)[C@@H]1O` (stereo partly drawn) [6′-P-cellobiose], the “G6PDH-coupled NADPH absorbance assay (340 nm)” value (LpPgb1) is reported as “Both enzymes showed hydrolytic activity towards all of these substrates”.

In the case of `O=P(O)(O)OC[C@H]1O[C@@H](OC[C@H]2OC(O)[C@H](O)[C@@H](O)[C@@H]2O)[C@H](O)[C@@H](O)[C@@H]1O` (stereo partly drawn) [6′-P-gentiobiose], the “G6PDH-coupled NADPH absorbance assay (340 nm)” value (LpPgb1) is reported as “Both enzymes showed hydrolytic activity towards all of these substrates”.

With `O=P(O)(O)OC[C@H]1OC(O)[C@H](O)[C@@H](O)[C@@H]1O` (stereo partly drawn) [BG6, 6-P-β-glucose] the “X-ray crystal structure, 1.48 Å” value (SmBgl) was “two BG6 ligands”.
